The results in this text go back to article PMC9312876, “Therapeutic Potential of a Novel Vitamin D3 Oxime Analogue, VD1-6, with CYP24A1 Enzyme Inhibitory Activity and Negligible Vitamin D Receptor Binding” (Biomolecules, 2022).

The target of experiment [1] is T1, vitamin D receptor (VDR) (Homo sapiens, UniProt P11473).
T1 construct: full-length
T1 sequence (P11473 1-427): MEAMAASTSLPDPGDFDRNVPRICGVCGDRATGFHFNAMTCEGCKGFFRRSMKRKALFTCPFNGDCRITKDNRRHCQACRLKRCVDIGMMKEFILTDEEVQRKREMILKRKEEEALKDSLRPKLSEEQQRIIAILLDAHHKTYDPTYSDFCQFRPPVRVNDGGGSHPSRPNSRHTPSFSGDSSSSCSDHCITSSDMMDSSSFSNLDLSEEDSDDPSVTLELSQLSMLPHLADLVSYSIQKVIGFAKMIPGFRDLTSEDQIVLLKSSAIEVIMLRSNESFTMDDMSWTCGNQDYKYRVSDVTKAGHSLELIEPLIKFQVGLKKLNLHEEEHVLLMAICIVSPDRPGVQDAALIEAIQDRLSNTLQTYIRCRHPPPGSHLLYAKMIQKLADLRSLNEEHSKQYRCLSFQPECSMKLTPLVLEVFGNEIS
Briefly: fluorescence polarization competition with Fluormone VDR Red tracer (PolarScreen). Type of experiment: binding. On the technique in general: Polarisation of emitted light reports the rotation of a fluorescent probe.

Experiment [2] deals with T1, vitamin D receptor (VDR). Briefly: fluorescence polarization competition with Fluormone VDR Red tracer (PolarScreen); binding only evident above […].

SMILES strings stand for the structures.

In general, IC50 refers to the concentration at which inhibition is half-maximal. Lower therefore signals higher potency. `C=C1CC[C@H](O)C/C1=C/C=C1\CCC[C@]2(C)[C@@H]([C@H](C)CCCC(C)(C)O)CC[C@@H]12` [25(OH)D3] yielded a half-maximal inhibitory concentration (IC50) in experiment [1] of 56.2 nM.
Consider `C=C1/C(=C\C=C2/CCC[C@]3(C)[C@@H]([C@H](C)CCC(=NOC)C(C)(C)C)CC[C@@H]23)C[C@@H](O)C[C@@H]1O` [VD1-6], for which the IC50 in experiment [2] was found to be 438 nM.
